From paper PMC5680178, “D-Cateslytin, a new antimicrobial peptide with therapeutic potential” (Scientific Reports, 2017)
In brackets after ≈: the same amount, converted by molar mass. Read-outs that look alike come from different tables or passages of the source. Non-standard residues stand in square brackets, D forms with d. Residues, ends and D or L forms follow the SMILES beside them. No end group written: not given here.

Assays:
[1] = test system: Staphylococcus aureus (MRSA) (S1); details: for FIC: MICcombination/MICalone; for FICI: sum of both FICs
Description: (§5) According to the European Committee on Antimicrobial Susceptibility Testing[20], the effect of a combination between two antibacterial compounds can be evaluated by their FICI (Fractional Inhibitory Concentration Index). The FICI consists of the sum of the FICs of both antibacterial agents: FIC index = FICantimicrobial + FICD-Ctl. For each compound, the FIC was determined as the ratio between the MIC of the compound in combination (MICcombination) and the MIC of the compound acting alone (MICalone). On the basis of their FIC index, each combination was categorized as synergistic (≤0.5), additive (>0.5 to 1), indifferent (>1 to <4) or antagonistic (≥4).
(§6) Microorganisms were cultured according to the manufacturer’s or the owner’s instructions in their respective media: Luria Bertani broth (Sigma) was used for E. coli strains, Mueller Hinton broth (Difco) for S. aureus strains and Anaerobe Basal broth (Oxoid) for F. nucleatum, P. intermedia and P. micra.
(§7) The MIC was determined by broth microdilution. An overnight culture of each bacterial strain was diluted (approximately to OD600 = 0,001) and microorganisms were plated in 96-well plates in the presence of different concentrations of antimicrobials, D-Ctl or L-Ctl alone or in combination. Three technical replicates were performed for each condition. After 24 hours of incubation, the microorganism growth was assessed by optical density OD600 using a Multiskan™ EX microplate spectrophotometer (Thermo Fisher Scientific). […] Each experiment was performed with at least three biological replicates.

[2] = test system: Staphylococcus aureus (MRSA) (S1); assay: microbe, parasite or virus in culture; details: 24 h, read-out: MIC (MIC alone)
Description: as §5, §6, §7

[3] = test system: epithelial cells, smooth muscle cells and T cells; details: cited from earlier work
From the text: In the last decade, there have been a few HDPs entering clinical trials, specifically cathelicidins and defensins natural peptides or derivatives such as LL-37, MBI-226 (studies NCT00211523, NCT00211497 and NCT00027248 for the prevention of central venous catheter-related bloodstream infections and acne) and PMX-30063 (study NCT01211470 for acute bacterial skin and skin-structure infection). However, the clinical and commercial development of these peptide-based drugs has some limitations such as high cost of production, susceptibility to proteases and cytotoxicity. For example, the human cath ...

aureolysin = details: cited from earlier work
From the text: (§1) To this aim, different bacterial ...

V8 = details: cited from earlier work
From the text: as §1

[4] = test system: secreted proteases from S. aureus methicillin resistant (MRSA); details: 400 μL filtered culture supernatant of MRSA, 37 °C, 24 hours; RP-HPLC C18, 214 nm, versus peptide in water
Description: (§2) Bacterial supernatant was prepared as follows: a single colony of each strain was resuspended in 5 mL of culture medium as indicated above and incubated at 37 °C overnight. The culture was then centrifuged at 10000 g for 1 min and the supernatant was filtered using a […] MillexH-GV (Millipore, Carrigtwohill, Ireland). An aliquot of each supernatant was incubated at 37 °C for 48 hours. Absence of growth was interpreted as lack of viable microorganism. 400 μL of supernatant was then incubated with or without each peptide of interest at 37 °C for 24 hours. As a control, each peptide was incubated in water at 37 °C for 24 hours. Samples were then separated using a Dionex HPLC system (Ultimate 3000; Sunnyvale, CA USA) on a Nucleosil reverse-phase 300–5C18-column ([…]; particle size: […]; porosity, 300 Å) (Macherey Nagel, Hoerdt, France). Absorbance was monitored at 214 nm and the solvent system consisted of 0.1% (v/v) TFA in water (solvent A) and 0.09% (v/v) TFA in 70% (v/v) acetonitrile-water (solvent B). Elution was performed at a flow rate of […] with a gradient of solvent B as indicated on the chromatograms.

[5] = test system: secreted proteases from E. coli MDR; details: 400 μL filtered culture supernatant of E. coli MDR, 37 °C, 24 hours; RP-HPLC C18, 214 nm, versus peptide in water
Description: as §2

[6] = test system: secreted proteases from S. aureus methicillin sensitive (MSSA); details: 400 μL filtered culture supernatant of MSSA, 37 °C, 24 hours; RP-HPLC C18, 214 nm, versus peptide in water
Description: as §2

[7] = test system: secreted proteases from F. nucleatum; details: 400 μL filtered culture supernatant of F. nucleatum, 37 °C, 24 hours; RP-HPLC C18, 214 nm, versus peptide in water
Description: as §2

[8] = test system: secreted proteases from P. micra; details: 400 μL filtered culture supernatant of P. micra, 37 °C, 24 hours; RP-HPLC C18, 214 nm, versus peptide in water
Description: as §2

[9] = test system: secreted proteases from P. intermedia; details: 400 μL filtered culture supernatant of P. intermedia, 37 °C, 24 hours; RP-HPLC C18, 214 nm, versus peptide in water
Description: as §2

[10] = test system: secreted proteases from E. coli wild type; details: 400 μL filtered culture supernatant of E. coli wild type, 37 °C, 24 hours; RP-HPLC C18, 214 nm, versus peptide in water
Description: as §2

[11] = test system: Parvimonas micra (ATCC 33270); details: for MIC (MIC alone): broth microdilution, Anaerobe Basal broth, 24 h, OD600, 100% inhibition, modified Gompertz function, biological replicates
Description: as §5, §6, §7

[12] = test system: Escherichia coli (ATCC 25922); assay: microbe, parasite or virus in culture; assay type: cell-based
Description: (§3) The MIC was determined by broth microdilution. […] Three technical replicates were performed for each condition.

[13] = test system: Prevotella intermedia (ATCC 49046); details: for MIC (MIC alone): ATCC 49046, 24 h
Description: as §5, §6, §7

[14] = test system: Escherichia coli (MDR) (K-12); details: for MIC (MIC alone): broth microdilution, Luria Bertani broth, 24 h, OD600, lowest concentration inhibiting 100% of inoculum, modified Gompertz function, biological replicates; for FIC: MICcombination/MICalone; for FICI: sum of both FICs
Description: as §5, §6, §7

[15] = test system: Staphylococcus aureus (MSSA) (ATCC 25923); assay: microbe, parasite or virus in culture; details: for FIC: MICcombination/MICalone; for FICI: sum of both FICs
Description: as §3

[16] = test system: Fusobacterium nucleatum (ATCC 49256); details: for MIC (MIC alone): ATCC 49256, 24 h
Description: as §5, §6, §7

[17] = test system: E. coli (ATCC 25922) wild type; details: cultured with ½ MIC of the agent, diluted daily, for 24 days; value at day 24; three technical replicates
Description: An E. coli (ATCC® 25922™) culture was sequentially diluted every day in the presence of the different antibacterial compounds: D-Ctl, ampicillin or cefotaxime at ½ MIC during 24 days. The changes in the MICs values were determined as previously described by broth microdilution at the indicated times. The experiment was performed with three technical replicates.

[18] = test system: Escherichia coli (MDR) (K-12); assay: microbe, parasite or virus in culture; details: 24 h, read-out: MIC (MIC alone)
Description: as §5, §6, §7

[19] = test system: secreted proteases from S. aureus methicillin resistant (MRSA); details: supernatant of MRSA, previous study; cited from earlier work
From the text: (§4) Linear L-peptides with α-helical structures are usually susceptible to proteolysis. […] The specific spatial configurations of the cleavage sites for these enzymes are not present in D-peptides although these peptides might be cleaved by non-specific hydrolysis during enzymatic digestion. Subsequently, we assessed the sensitivity of D-Ctl to secreted bacterial proteases by HPLC. To this aim, different bacterial ...

[20] = test system: secreted proteases from S. aureus methicillin sensitive (MSSA); details: supernatant of MSSA, previous study; cited from earlier work
From the text: as §4

[21] = broth microdilution, Mueller Hinton broth, 24 h, OD600, 100% inhibition, modified Gompertz function, biological replicates
[22] = combination D-Ctl + amoxicillin, sum of both FICs
[23] = combination D-Ctl + methicillin

Molecule: CN[C@H](CC(C)C)C(=O)N[C@H]1C(=O)N[C@@H](CC(N)=O)C(=O)N[C@H]2C(=O)N[C@H]3C(=O)N[C@H](C(=O)N[C@H](C(=O)O)c4cc(O)cc(O)c4-c4cc3ccc4O)[C@H](O)c3ccc(c(Cl)c3)Oc3cc2cc(c3O[C@@H]2O[C@H](CO)[C@@H](O)[C@H](O)[C@H]2O[C@H]2C[C@](C)(N)[C@H](O)[C@H](C)O2)Oc2ccc(cc2Cl)[C@H]1O [Vancomycin]
- FIC ([1]; combination D-Ctl + vancomycin): 1
- Effect ([1]; combination D-Ctl + vancomycin, category by FIC index): Indifferent
- FICI ([1]; combination D-Ctl + vancomycin): 2
- MIC [2]: 0.8 µg/mL (≈ 0.552 µM)

Molecule: LL-37: human cathelicidin host defence peptide
- level at which apoptosis is enhanced [3]: above 10 µM
- proteolysis by secreted S. aureus protease (aureolysin): cleavage
- proteolysis by secreted S. aureus protease (V8): cleavage

Molecule: CSCC[C@@H](NC(=O)[C@@H](CO)NC(=O)[C@H](N)CCCNC(=N)N)C(=O)N[C@H](CCCNC(=N)N)C(=O)N[C@H](CC(C)C)C(=O)N[C@H](CO)C(=O)N[C@H](Cc1ccccc1)C(=O)N[C@H](CCCNC(=N)N)C(=O)N[C@H](C)C(=O)N[C@H](CCCNC(=N)N)C(=O)NCC(=O)N[C@H](Cc1ccc(O)cc1)C(=O)NCC(=O)N[C@H](Cc1ccccc1)C(=O)N[C@H](CCCNC(=N)N)C(=O)O [D-Ctl, D-Cateslytin] (H-[dR][dS][dM][dR][dL][dS][dF][dR][dA][dR]G[dY]G[dF][dR]-OH)
- MIC (MIC alone) [1, 21]: 18 µg/mL (≈ 9.68 µM)
- FIC ([1]; combination D-Ctl + vancomycin): 1
- FICI ([1]; combination D-Ctl + vancomycin): 2
- stability in bacterial supernatant [4]: not degraded
- stability in bacterial supernatant [5]: not degraded
- stability in bacterial supernatant [6]: not degraded
- stability in bacterial supernatant [7]: not degraded
- stability in bacterial supernatant [8]: not degraded
- stability in bacterial supernatant [9]: not degraded
- stability in bacterial supernatant [10]: not degraded
- MIC (MIC alone) [11]: 23 µg/mL (≈ 12.4 µM)
- FIC ([11]; combination D-Ctl + amoxicillin, MICcombination/MICalone): 0.25
- FICI [11, 22]: 0.5
- MIC ([12]; ATCC 25922, 24 h): 8.0 µg/mL (≈ 4.3 µM)
- MIC (MIC alone) [13]: 10 µg/mL (≈ 5.38 µM)
- FICI [13, 22]: 0.5
- MIC (MIC alone) [14]: 8.4 µg/mL (≈ 4.52 µM)
- FIC ([14]; combination D-Ctl + cefotaxime): 0.5
- FICI ([14]; combination D-Ctl + cefotaxime): 1.0
- MIC (MIC alone) [15, 21]: 24 µg/mL (≈ 12.9 µM)
- FIC [15, 23]: 0.5
- FICI [15, 23]: 0.75
- MIC (MIC alone) [16]: 22 µg/mL (≈ 11.8 µM)
- FICI [16, 22]: 1.0

Molecule: CC1(C)S[C@@H]2[C@H](NC(=O)[C@H](N)c3ccccc3)C(=O)N2[C@H]1C(=O)O [Ampicillin]
- MIC ([12]; Escherichia coli, ATCC25922, broth microdilution, Luria Bertani broth, 24 h, OD600, lowest concentration inhibiting 100% of inoculum, modified Gompertz function, biological replicates, read-out: MIC): 7 µg/mL (≈ 20 µM)
- fold change in MIC under selective pressure [17]: 3 x MIC

Molecule: NC[C@H]1O[C@H](O[C@H]2[C@H](O)[C@@H](O[C@H]3O[C@H](CO)[C@@H](O)[C@H](N)[C@H]3O)[C@H](N)C[C@@H]2N)[C@H](O)[C@@H](O)[C@@H]1O [Kanamycin]
- MIC ([12]; broth microdilution, Luria Bertani broth, 24 h, OD600, lowest concentration inhibiting 100% of inoculum, modified Gompertz function, biological replicates): 21.6 µg/mL (≈ 44.6 µM)

Molecule: COc1cccc(OC)c1C(=O)N[C@@H]1C(=O)N2[C@@H]1SC(C)(C)[C@@H]2C(=O)O [Methicillin]
- MIC ([15]; Staphylococcus aureus, 24 h, read-out: MIC (MIC alone)): 1.2 µg/mL (≈ 3.15 µM)
- FIC [15, 23]: 0.25
- MIC combination ([15]; combination D-Ctl + methicillin, broth microdilution, at least in duplicate): 0.3 µg/mL
- Effect ([15]; combination D-Ctl + methicillin, category by FIC index): Additive
- FICI [15, 23]: 0.75

Molecule: CO/N=C(\C(=O)N[C@@H]1C(=O)N2C(C(=O)O)=C(COC(C)=O)CS[C@H]12)c1csc(N)n1 [Cefotaxime]
- FIC ([14]; combination D-Ctl + cefotaxime): 0.5
- Effect ([14]; combination D-Ctl + cefotaxime, category by FIC index): Additive
- FICI ([14]; combination D-Ctl + cefotaxime): 1.0
- MIC [18]: 0.1 µg/mL (≈ 0.22 µM)
- fold change in MIC under selective pressure [17]: 3 x MIC

Molecule: RSMRLSFRARGYGFR [L-Ctl, L-Cateslytin]
- stability in bacterial supernatant [5]: degraded
- stability in bacterial supernatant [7]: resistant to the degradation
- stability in bacterial supernatant [8]: resistant to the degradation
- stability in bacterial supernatant [9]: resistant to the degradation
- stability in bacterial supernatant [10]: degraded
- MIC (MIC alone) [11]: 120 µg/mL
- MIC ([12]; ATCC 25922, 24 h): 75 µg/mL
- MIC (MIC alone) [13]: 149 µg/mL
- MIC (MIC alone) [14]: 150 µg/mL
- stability in bacterial supernatant [19]: stable
- stability in bacterial supernatant [20]: stable
- MIC (MIC alone) [16]: 125 µg/mL
